Data as given in US12226480B2, “Combination drug including TLR7 agonist” (SUMITOMO PHARMA CO., LTD., priority 2017, dated 2025).

How the values were obtained:
MHC class I (H-2Kd) = MHC class I (H-2Kd) on tumor by flow cytometry (anti-PD-1 study); assay type: in vivo, Balb/c mice; details: tumor on 23rd day, CD45-negative H-2Kd-positive fraction; Compound 1 5 mg/kg iv, anti-PD-1 antibody 200 μg ip
Method: 1×10^6 Cells of murine colon cancer cell line CT26 (ATCC) were transplanted to the ventral flank of 48 female 6-week-old Balb/c mice. Five days later, the mice were divided into four groups. In vehicle administration group, saline was intravenously administered once a week, and 200 μg of Rat IgG2a isotype control antibody (Bioxcell) was intraperitoneally administered twice a week. In Compound 1 administration group, Compound 1 was intravenously administered in a dose of 5 mg/kg once a week, and 200 μg of Rat IgG2a isotype control antibody (Bioxcell) was intraperitoneally administered twice a week. In anti-PD-1 antibody administration group, 200 μg of anti-PD-1 antibody (Bioxcell) was intraperitoneally administered twice a week. In combination group of Compound 1 and anti-PD-1 antibody, Compound 1 was intravenously administered in a dose of 5 mg/kg once a week, and 200 μg of anti-PD-1 antibody (Bioxcell) was intraperitoneally administered twice a week. After the transplantation of the tumor cell, the tumor was picked out on the 23rd day, and a cell suspension of the tumor was prepared by using a tumor dissociation kit (Miltenyi) and a gentle macs dissociater (Miltenyi). The cell suspension was stained with fluoresceinated anti-CD45 antibody and anti-H-2Kd antibody, and H-2Kd on the cancer cell was detected as CD45-negative and H-2Kd-positive fractions by flow cytometry method.

effector memory T cell [1] = assay: Ratio of effector memory T cell in CD8-positive tumor-infiltrating lymphocytes by FACS (anti-CTLA-4 study); assay type: in vivo, Balb/c mice; details: tumor on 26th day, CD8+ CD62L- CD127+, compared with the vehicle administration group, Compound 1 5 mg/kg iv, anti-CTLA-4 antibody 200 μg ip
Method: (§1) 1×10^6 Cells of murine colon cancer cell line CT26 (ATCC) were transplanted to the ventral flank of 40 female 6-week-old Balb/c mice. Seven days later, the mice were divided into four groups. In vehicle administration group, saline was intravenously administered once a week, and 200 μg of Rat IgG2a isotype control antibody (Bioxcell) was intraperitoneally administered twice a week. In Compound 1 administration group, Compound 1 was intravenously administered in a dose of 5 mg/kg once a week, and 200 μg of Rat IgG2a isotype control antibody (Bioxcell) was intraperitoneally administered twice a week. In anti-CTLA-4 antibody administration group, 200 μg of anti-CTLA-4 antibody (Bioxcell) was intraperitoneally administered twice a week. In combination group of Compound 1 and anti-CTLA-4 antibody, Compound 1 was intravenously administered in a dose of 5 mg/kg once a week, and 200 μg of anti-CTLA-4 antibody (Bioxcell) was intraperitoneally administered twice a week. After the transplantation of the tumor cell, the tumor was picked out on the 26th day, and a cell suspension of the tumor was prepared by using a tumor dissociation kit (Miltenyi) and a gentle macs dissociater (Miltenyi). […] The obtained cell suspension was stained with fluoresceinated anti-CD8, anti-CD62L, and anti-CD127 antibodies, and analyzed by flow cytometry (FACS) method. […]

[2] = tested on: murine colon cancer cell line CT26; assay: Antitumor activity of combination use of anti-PD-1 antibody and TLR7 agonist (tumor volume); assay type: in vivo; details: CT26 in Balb/c mice, until 23rd day; Compound 1 5 mg/kg iv once a week, anti-PD-1 antibody 200 μg ip twice a week; versus vehicle administration group
Method: 1×10^6 Cells of murine colon cancer cell line CT26 (ATCC) were transplanted to the ventral flank of 48 female 6-week-old Balb/c mice. Five days later, the mice were divided into four groups. In vehicle administration group, saline was intravenously administered once a week, and 200 μg of Rat IgG2a isotype control antibody (Bioxcell) was intraperitoneally administered twice a week. In TLR7 agonist administration group, a TLR7 agonist, N-{4-[(2-amino-4-{[(3S)-1-hydroxyhexan-3-yl]amino}-6-methylpyrimidin-5-yl)methyl]-3-methoxybenzyl}-N-(2,2,2-trifluoroethyl)glycine (hereinafter, referred to as “Compound 1”) was administered into a vein in a dose of 5 mg/kg once a week, and 200 μg of Rat IgG2a isotype control antibody (Bioxcell) was intraperitoneally administered twice a week. In anti-PD-1 antibody administration group, 200 μg of anti-PD-1 antibody (Bioxcell) was intraperitoneally administered twice a week. In combination group of Compound 1 and anti-PD-1 antibody, Compound 1 was intravenously administered in a dose of 5 mg/kg once a week, and 200 μg of anti-PD-1 antibody (Bioxcell) was intraperitoneally administered twice a week. After the transplantation of the tumor cell, the tumor volume was measured twice a week, and the body weight was checked once a week until the 23rd day. […]

[3] = tested on: murine colon cancer cell line CT26; assay: Antitumor activity of combination use of anti-CTLA-4 antibody and TLR7 agonist (tumor volume); assay type: in vivo; details: CT26 in Balb/c mice, until 23rd day; Compound 1 5 mg/kg iv once a week, anti-CTLA-4 antibody 200 μg ip twice a week; versus vehicle administration group
Method: 1×10^6 Cells of murine colon cancer cell line CT26 (ATCC) were transplanted to the ventral flank of 40 female 7-week-old Balb/c mice. Seven days later, the mice were divided into four groups. In vehicle administration group, saline was intravenously administered once a week, and 200 μg of Rat IgG2a isotype control antibody (Bioxcell) was intraperitoneally administered twice a week. In TLR7 agonist administration group, Compound 1 was intravenously administered in a dose of 5 mg/kg once a week, and 200 μg of Rat IgG2a isotype control antibody (Bioxcell) was intraperitoneally administered twice a week. In anti-CTLA-antibody administration group, 200 μg of anti-CTLA-4 antibody (Bioxcell) was intraperitoneally administered twice a week. In combination group of Compound 1 and anti-CTLA-4 antibody, Compound 1 was intravenously administered in a dose of 5 mg/kg once a week, and 200 μg of anti-CTLA-4 antibody (Bioxcell) was intraperitoneally administered twice a week. After the transplantation of the tumor cell, the tumor volume was measured twice a week, and the body weight was checked once a week until the 23rd day. The tumor volume was obtained by measuring long axis and short axis of the tumor and calculating by a math formula of (short axis)×(short axis)×(long axis)×0.5.
The ordinate denotes tumor volume, and the abscissa denotes elapsed days from the transplantation of the tumor cell.

effector memory T cell [4] = assay: Ratio of effector memory T cell in CD8-positive tumor-infiltrating lymphocytes by FACS (anti-PD-1 study); assay type: in vivo, Balb/c mice; details: tumor on 23rd day, CD8+ CD62L- CD127+, compared with the vehicle administration group, Compound 1 5 mg/kg iv, anti-PD-1 antibody 200 μg ip
Method: as §1, with “48” for “40”, “Five” for “Seven”, “anti-PD-1” for “anti-CTLA-4”, “23rd” for “26th”, “dissociates” for “dissociater”

## CCC[C@@H](CCO)Nc1nc(N)nc(C)c1Cc1ccc(CN(CC(=O)O)CC(F)(F)F)cc1OC [Compound 1, N-{4-[(2-amino-4-{[(3S)-1-hydroxyhexan-3-yl]amino}-6-methylpyrimidin-5-yl)methyl]-3-methoxybenzyl}-N-(2,2,2-trifluoroethyl)glycine]
MHC class I (H-2Kd)
  mean fluorescent intensity (MFI) of H-2Kd: not so different from that of the vehicle administration group
Effector memory T cell [1]
  ratio of effector memory T cell in CD8-positive cell: did not increase
[2]
  tumor-volume variation / tumor growth inhibition: tumor growth inhibition was observed
[3]
  tumor-volume variation / tumor growth inhibition: not so different from that of the vehicle administration group
Effector memory T cell [4]
  ratio of effector memory T cell in CD8-positive cell: did not increase
